The source of these data is US6875743B1, “Cell adhesion inhibitors” (Biogen, Inc., priority 1996, dated 2005).

pIC50: −log10 of the molar value. Some results are limits rather than exact numbers.

The target of the assay is T1, VLA4 (Homo sapiens, UniProt P05556+P13612).
T1 construct: endogenous in cells; host or cells: Ramos cells
Kind of assay: Inhibition of VLA4-dependent adhesion to BSA-CS1. It counts as cell-based. The following applies: binding of BCECF-labelled Ramos cells to BSA-CS1 coated wells, 2 mM MnCl2; read-out: IC50. The text has this: For example, the cell adhesion inhibitory activity of these compounds may be measured by determining the concentration of inhibitor required to block the binding of VLA-4-expressing cells to fibronectin- or CS1-coated plates. In this assay microtiter wells are coated with either fibronectin (containing the CS-1 sequence) or CS-1. If CS-1 is used, it must be conjugated to a carrier protein, such as bovine serum albumin, in order to bind to the wells. Once the wells are coated, varying concentrations of the test compound are then added together with appropriately labelled, VLA-4-expressing cells. Alternatively, the test compound may be added first and allowed to incubate with the coated wells prior to the addition of the cells. The cells are allowed to incubate in the wells for at least 30 minutes. Following incubation, the wells are emptied and washed. Inhibition of binding is measured by quantitating the fluorescence or radioactivity bound to the plate for each of the various concentrations of test compound, as well as for controls containing no test compound.
VLA-4-expressing cells that may be utilized in this assay include Ramos cells, Jurkat cells, A375 melanoma cells, as well as human peripheral blood lymophocytes (PBLs). The cells used in this assay may be fluorescently or radioactively labelled.
This assay was used to assess the potency of VLA4-directed inhibitory compounds of this invention.
We dissolved BSA-SMCC (Pierce Chemical, Rockford, Ill.; Catalog #77115) in H2O at a concentration of 10 mg/mL. [SEQ ID NO:4]: […](“Cys-Tyr-CS1 peptide”), which we synthesized by conventional solid phase chemistry and purified by HPLC, was dissolved in 10 mM HEPES pH 5, 50 mM NaCl and 0.1 mM EDTA also at a concentration of 10 mg/mL. We then mixed 500 μL of BSA-SMCC, 250 μL of Cys-Tyr-CS1 peptide and 75 μL of 1 mM HEPES pH 7.5 and allowed the conjugation reaction to proceed for 30 minutes. We stopped the reaction by adding 1 μL of beta-mercaptoethanol. Samples were analyzed for cross-linking by SDS-PAGE.
We coated the wells of a Linbro titertek polystyrene 96-well flat bottom plate (Flow Laboratories, Maclean, Va.; catalog #76-231-05) with 100 μL of the above-described BSA-CS1 solution diluted to 1 μg/mL in 0.05 M NaHCO3 (15 mM NaHCO3, 35 mM Na2CO3) pH 9.2. Some wells were not coated with CS1 in order to assess non-specific cell binding (NSB). The plate was then incubated overnight at 4° C.
Following this incubation, the contents of the wells were removed by inverting and blotting the plate. All of the wells were then blocked with 100 μL of 1% BSA in PBS, 0.02% NaN3, for a minimum of one hour at room temperature.
Ramos cells are grown, maintained and labelled in RPMI 1640 culture medium containing 1% BSA. Just prior to running the assay, we added 2′,7′-bis-(2-carboxyethyl)-5 (and -6) carboxyfluorescein acetoxymethyl ester (“BCECF-AM”; Molecular Probes Inc., Eugene, Oreg.; catalog #B-1150) to a final concentration of 2 μM to a culture of Ramos cells (4×10^6 cells/mL). We incubated the cells for 20 minutes at 37° C.
Following labelling, the cells were washed twice in assay buffer (24 mM TRIS, 137 mM NaCl, 2.7 mM KCl, pH 7.4, containing 0.1% BSA and 2 mM glucose) to remove any cations originating from the culture medium. The cells were then resuspended in assay buffer to 4×10^6 cells/mL and 2 mM MnCl2 was added to upregulate VLA4 on the surface of the cells.
Immediately prior to running the assay, we removed the BSA blocking solution from the 96-well plates and washed the wells with 100 μL of assay buffer. We then added to each well 25 μL of test cell adhesion inhibitory compound at 2× the final concentration and 25 μL of the labelled Ramos cells. […] Each concentration of compound was tested in triplicate. The compound and cells are allowed to incubate for 30 minutes at room temperature.

T1 sequence (P13612 34-1032): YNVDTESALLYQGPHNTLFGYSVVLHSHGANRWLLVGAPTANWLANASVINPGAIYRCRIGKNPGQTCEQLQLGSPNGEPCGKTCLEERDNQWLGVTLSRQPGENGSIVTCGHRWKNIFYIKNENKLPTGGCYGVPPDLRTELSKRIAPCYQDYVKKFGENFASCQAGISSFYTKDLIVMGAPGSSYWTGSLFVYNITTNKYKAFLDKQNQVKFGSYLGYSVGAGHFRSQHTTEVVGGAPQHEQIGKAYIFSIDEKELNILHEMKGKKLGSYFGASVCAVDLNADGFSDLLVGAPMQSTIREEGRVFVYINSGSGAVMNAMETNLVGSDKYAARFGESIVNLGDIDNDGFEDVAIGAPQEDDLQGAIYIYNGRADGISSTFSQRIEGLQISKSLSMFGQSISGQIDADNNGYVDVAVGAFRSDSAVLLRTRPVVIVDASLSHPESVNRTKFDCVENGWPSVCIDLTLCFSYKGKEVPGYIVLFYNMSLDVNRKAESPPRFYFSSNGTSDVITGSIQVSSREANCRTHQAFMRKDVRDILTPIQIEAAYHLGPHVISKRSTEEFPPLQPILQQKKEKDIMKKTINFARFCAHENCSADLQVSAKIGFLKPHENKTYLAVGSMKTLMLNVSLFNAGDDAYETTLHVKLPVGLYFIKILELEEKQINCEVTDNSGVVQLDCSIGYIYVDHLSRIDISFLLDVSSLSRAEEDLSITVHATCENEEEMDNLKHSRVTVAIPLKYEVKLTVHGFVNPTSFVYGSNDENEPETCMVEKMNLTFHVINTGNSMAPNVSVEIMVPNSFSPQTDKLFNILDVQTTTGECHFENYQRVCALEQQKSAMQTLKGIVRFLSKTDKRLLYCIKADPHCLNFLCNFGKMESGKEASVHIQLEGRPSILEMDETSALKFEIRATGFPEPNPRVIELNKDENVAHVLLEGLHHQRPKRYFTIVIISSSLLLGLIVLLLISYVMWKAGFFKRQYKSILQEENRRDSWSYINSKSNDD
T1 sequence (P05556 21-798): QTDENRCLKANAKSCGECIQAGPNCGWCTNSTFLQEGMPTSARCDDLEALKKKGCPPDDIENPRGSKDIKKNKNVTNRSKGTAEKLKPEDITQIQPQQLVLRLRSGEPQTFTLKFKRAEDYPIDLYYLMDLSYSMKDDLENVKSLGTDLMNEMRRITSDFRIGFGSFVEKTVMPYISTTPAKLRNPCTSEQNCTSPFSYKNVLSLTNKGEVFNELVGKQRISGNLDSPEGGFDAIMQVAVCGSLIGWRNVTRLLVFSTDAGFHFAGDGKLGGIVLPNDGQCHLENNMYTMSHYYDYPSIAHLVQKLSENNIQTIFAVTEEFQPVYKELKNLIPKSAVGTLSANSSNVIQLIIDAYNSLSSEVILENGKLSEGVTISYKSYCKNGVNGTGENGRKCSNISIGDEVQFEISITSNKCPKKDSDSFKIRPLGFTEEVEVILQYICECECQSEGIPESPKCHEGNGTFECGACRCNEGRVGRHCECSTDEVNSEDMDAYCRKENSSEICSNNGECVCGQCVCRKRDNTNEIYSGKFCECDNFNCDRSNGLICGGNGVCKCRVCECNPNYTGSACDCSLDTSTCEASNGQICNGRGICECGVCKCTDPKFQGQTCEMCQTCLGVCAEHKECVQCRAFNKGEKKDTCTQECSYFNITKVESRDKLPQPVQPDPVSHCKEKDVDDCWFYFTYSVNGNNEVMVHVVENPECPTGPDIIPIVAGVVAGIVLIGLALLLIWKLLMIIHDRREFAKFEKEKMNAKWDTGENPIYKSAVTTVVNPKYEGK

For `Cc1ccccc1NC(=O)Nc1ccc(CC(=O)N[C@@H](CC(C)C)C(=O)N[C@@H](CC(=O)O)C(=O)N[C@H](CC(C)C)C(N)=O)cc1` [Compound 233], the pIC50 is above 7.30.
In the case of `Cc1ccccc1NC(=O)Nc1ccc(CC(=O)N[C@@H](CC(C)C)C(=O)N[C@@H](CC(=O)O)C(=O)N[C@@H](CCC(=O)O)C(N)=O)cc1` [Compound 234] it was above 7.30.
In the case of `Cc1ccccc1NC(=O)Nc1ccc(CC(=O)N[C@@H](CC(C)C)C(=O)N[C@@H](CC(=O)O)C(=O)N[C@H](C(N)=O)[C@@H](C)O)cc1` [Compound 235], the pIC50 was above 7.30.
In the case of `CSCC[C@H](NC(=O)[C@H](CC(=O)O)NC(=O)[C@H](CC(C)C)NC(=O)Cc1ccc(NC(=O)Nc2ccccc2C)cc1)C(N)=O` [Compound 236] it was above 7.30; in that of `Cc1ccccc1NC(=O)Nc1ccc(CC(=O)N[C@@H](CC(C)C)C(=O)N[C@@H](CC(=O)O)C(=O)N[C@H](CC(N)=O)C(N)=O)cc1` [Compound 237], above 7.30.
To `Cc1ccccc1NC(=O)Nc1ccc(CC(=O)N[C@@H](CC(C)C)C(=O)N[C@@H](CC(=O)O)C(=O)N[C@H](CCC(=O)O)C(N)=O)cc1` [Compound 238] belongs above 7.30; to `Cc1ccccc1NC(=O)Nc1ccc(CC(=O)N[C@@H](CC(C)C)C(=O)N[C@@H](CC(=O)O)C(=O)N[C@@H](Cc2c[nH]c3ccccc23)C(N)=O)cc1` [Compound 239], above 7.30; to `Cc1ccccc1NC(=O)Nc1ccc(CC(=O)N[C@@H](CC(C)C)C(=O)N[C@@H](CC(=O)O)C(=O)N[C@H](CO)C(N)=O)cc1` [Compound 240], above 7.30.
In the case of `Cc1ccccc1NC(=O)Nc1ccc(CC(=O)N2CCC[C@H]2C(=O)N[C@@H](CC(=O)O)C(=O)N[C@@H](CC(=O)O)C(N)=O)cc1` [Compound 241], the pIC50 was above 7.30.
Turning to `Cc1ccccc1NC(=O)Nc1ccc(CC(=O)N2CCC[C@H]2C(=O)N[C@@H](CC(=O)O)C(=O)N[C@@H](CC(C)C)C(N)=O)cc1` [Compound 242], the pIC50 is above 7.30.
Turning to `Cc1ccccc1NC(=O)Nc1ccc(CC(=O)N2CCC[C@H]2C(=O)N[C@@H](CC(=O)O)C(=O)N[C@H](C(N)=O)C(C)C)cc1` [Compound 243], the pIC50 is above 7.30.
In the case of `Cc1ccccc1NC(=O)Nc1ccc(CC(=O)N2CCC[C@H]2C(=O)N[C@@H](CC(=O)O)C(=O)N[C@H](CC(C)C)C(N)=O)cc1` [Compound 244] it was above 7.30; in that of `Cc1ccccc1NC(=O)Nc1ccc(CC(=O)N2CCC[C@H]2C(=O)N[C@@H](CC(=O)O)C(=O)N[C@@H](CCC(=O)O)C(N)=O)cc1` [Compound 245], above 7.30; in that of `Cc1ccccc1NC(=O)Nc1ccc(CC(=O)N2CCC[C@H]2C(=O)N[C@@H](CC(=O)O)C(=O)N[C@H](C(N)=O)[C@@H](C)O)cc1` [Compound 246], above 7.30.
`Cc1ccccc1NC(=O)Nc1ccc(CC(=O)N2CCC[C@H]2C(=O)N[C@@H](CC(=O)O)C(=O)N[C@H](CC(N)=O)C(N)=O)cc1` [Compound 248]: the pIC50 is above 7.30.
In the case of `Cc1ccccc1NC(=O)Nc1ccc(CC(=O)N2CCC[C@H]2C(=O)N[C@@H](CC(=O)O)C(=O)N[C@H](CCC(=O)O)C(N)=O)cc1` [Compound 249] it was above 7.30; in that of `Cc1ccccc1NC(=O)Nc1ccc(CC(=O)N2CCC[C@H]2C(=O)N[C@@H](CC(=O)O)C(=O)N[C@@H](Cc2c[nH]c3ccccc23)C(N)=O)cc1` [Compound 250], above 7.30.
In the case of `Cc1ccccc1NC(=O)Nc1ccc(CC(=O)N2CCCC2C(=O)NC(CC(=O)O)C(=O)NC(CO)C(N)=O)cc1` (stereo not shown) [Compound 251] it was above 7.30; in that of `Cc1ccccc1NC(=O)Nc1ccc(CC(=O)N[C@H](C(=O)N[C@@H](CC(=O)O)C(=O)N[C@@H](CC(=O)O)C(N)=O)[C@@H](C)O)cc1` [Compound 252], above 7.30; in that of `Cc1ccccc1NC(=O)Nc1ccc(CC(=O)N[C@H](C(=O)N[C@@H](CC(=O)O)C(=O)N[C@@H](CC(C)C)C(N)=O)[C@@H](C)O)cc1` [Compound 253], above 7.30.
Consider `Cc1ccccc1NC(=O)Nc1ccc(CC(=O)N[C@H](C(=O)N[C@@H](CC(=O)O)C(=O)N[C@H](C(N)=O)C(C)C)[C@@H](C)O)cc1` [Compound 254], for which the pIC50 is above 7.30.
In the case of `Cc1ccccc1NC(=O)Nc1ccc(CC(=O)N[C@H](C(=O)N[C@@H](CC(=O)O)C(=O)N[C@H](CC(C)C)C(N)=O)[C@@H](C)O)cc1` [Compound 255] it was above 7.30; in that of `Cc1ccccc1NC(=O)Nc1ccc(CC(=O)N[C@H](C(=O)N[C@@H](CC(=O)O)C(=O)N[C@@H](CCC(=O)O)C(N)=O)[C@@H](C)O)cc1` [Compound 256], above 7.30; in that of `Cc1ccccc1NC(=O)Nc1ccc(CC(=O)N[C@H](C(=O)N[C@@H](CC(=O)O)C(=O)N[C@H](C(N)=O)[C@@H](C)O)[C@@H](C)O)cc1` [Compound 257], above 7.30.
In the case of `CSCC[C@H](NC(=O)[C@H](CC(=O)O)NC(=O)[C@@H](NC(=O)Cc1ccc(NC(=O)Nc2ccccc2C)cc1)[C@@H](C)O)C(N)=O` [Compound 258] it was above 7.30.
For the compound `Cc1ccccc1NC(=O)Nc1ccc(CC(=O)N[C@H](C(=O)N[C@@H](CC(=O)O)C(=O)N[C@H](CC(N)=O)C(N)=O)[C@@H](C)O)cc1` [Compound 259], the pIC50 was above 7.30.
To `Cc1ccccc1NC(=O)Nc1ccc(CC(=O)N[C@H](C(=O)N[C@@H](CC(=O)O)C(=O)N[C@H](CCC(=O)O)C(N)=O)[C@@H](C)O)cc1` [Compound 260] belongs above 7.30; to `Cc1ccccc1NC(=O)Nc1ccc(CC(=O)N[C@H](C(=O)N[C@@H](CC(=O)O)C(=O)N[C@@H](Cc2c[nH]c3ccccc23)C(N)=O)[C@@H](C)O)cc1` [Compound 261], above 7.30; to `Cc1ccccc1NC(=O)Nc1ccc(CC(=O)N[C@H](C(=O)N[C@@H](CC(=O)O)C(=O)N[C@H](CO)C(N)=O)[C@@H](C)O)cc1` [Compound 262], above 7.30.
To `Cc1ccccc1NC(=O)Nc1ccc(CC(=O)N[C@@H](CCC(=O)O)C(=O)N[C@@H](CC(=O)O)C(=O)N[C@@H](CC(=O)O)C(N)=O)cc1` [Compound 263] belongs above 7.30; to `Cc1ccccc1NC(=O)Nc1ccc(CC(=O)N[C@@H](CCC(=O)O)C(=O)N[C@@H](CC(=O)O)C(=O)N[C@@H](CC(C)C)C(N)=O)cc1` [Compound 264], above 7.30; to `Cc1ccccc1NC(=O)Nc1ccc(CC(=O)N[C@@H](CCC(=O)O)C(=O)N[C@@H](CC(=O)O)C(=O)N[C@H](C(N)=O)C(C)C)cc1` [Compound 265], above 7.30.
In the case of `Cc1ccccc1NC(=O)Nc1ccc(CC(=O)N[C@@H](CCC(=O)O)C(=O)N[C@@H](CC(=O)O)C(=O)N[C@H](CC(C)C)C(N)=O)cc1` [Compound 266] it was above 7.30; in that of `Cc1ccccc1NC(=O)Nc1ccc(CC(=O)N[C@@H](CCC(=O)O)C(=O)N[C@@H](CC(=O)O)C(=O)N[C@@H](CCC(=O)O)C(N)=O)cc1` [Compound 267], above 7.30; in that of `Cc1ccccc1NC(=O)Nc1ccc(CC(=O)N[C@@H](CCC(=O)O)C(=O)N[C@@H](CC(=O)O)C(=O)N[C@H](C(N)=O)[C@@H](C)O)cc1` [Compound 268], above 7.30.
As to `CSCC[C@H](NC(=O)[C@H](CC(=O)O)NC(=O)[C@H](CCC(=O)O)NC(=O)Cc1ccc(NC(=O)Nc2ccccc2C)cc1)C(N)=O` [Compound 269], the pIC50 is above 7.30.
In the case of `Cc1ccccc1NC(=O)Nc1ccc(CC(=O)N[C@@H](CCC(=O)O)C(=O)N[C@@H](CC(=O)O)C(=O)N[C@H](CC(N)=O)C(N)=O)cc1` [Compound 270] it was above 7.30.

What is called pIC50 is the IC50 on a negative log10 scale, so that one unit is a factor of ten.
